{"source": "patent US20060251722A1", "about": "“Multi-component vitamin and mineral supplement for the optimal absorption of components” (Novavax, Inc., priority 2005, published 2006)", "origin": "cited, not measured here", "conditions": "rat, in vivo, po", "data": [{"substance": "carbonyl iron", "values": [{"measurement": "bioavailability relative to other elemental iron forms", "value": "2-5 times"}]}]}
